Key:
[1] = biological target: T1, PI3Kδ (Homo sapiens, UniProt O00329); test: biochemical kinase assay at ATP Km apparent
T1 construct: gene PIK3CD

[2] = biological target: T2, PPARγ (Homo sapiens, UniProt P37231); test: X-ray cocrystal structure ([…] Å); TR-FRET competitive binding
T2 construct: gene PPARG; L232-Y505 of UniProt entry P37231-2

[3] = biological target: ACE (h) (Homo sapiens, UniProt P12821); parameters: Eurofins SafetyScreen 87 enzyme part: inhibition of control enzyme activity, single concentration; conditions: mean of 2, 10 µM, inhibitor
[4] = biological target: T3, COX1(h) (Homo sapiens, UniProt P23219); parameters: Eurofins SafetyScreen 87 enzyme part: inhibition of control enzyme activity, single concentration; conditions: mean of 2, 10 µM, inhibitor
T3 construct: gene PTGS1

[5] = biological target: T4, COX2(h) (Homo sapiens, UniProt P35354); parameters: Eurofins SafetyScreen 87 enzyme part: inhibition of control enzyme activity, single concentration; conditions: mean of 2, 10 µM, inhibitor
T4 construct: gene PTGS2

[6] = biological target: IRK (h) (InsR) (Homo sapiens, UniProt P06213); parameters: Eurofins SafetyScreen 87 enzyme part: inhibition of control enzyme activity, single concentration; conditions: mean of 2, 10 µM, inhibitor
[7] = biological target: Lck kinase (h) (Homo sapiens, UniProt P06239); parameters: Eurofins SafetyScreen 87 enzyme part: inhibition of control enzyme activity, single concentration; conditions: mean of 2, 10 µM, inhibitor
Lck kinase (h), sequence (P06239 whole entry): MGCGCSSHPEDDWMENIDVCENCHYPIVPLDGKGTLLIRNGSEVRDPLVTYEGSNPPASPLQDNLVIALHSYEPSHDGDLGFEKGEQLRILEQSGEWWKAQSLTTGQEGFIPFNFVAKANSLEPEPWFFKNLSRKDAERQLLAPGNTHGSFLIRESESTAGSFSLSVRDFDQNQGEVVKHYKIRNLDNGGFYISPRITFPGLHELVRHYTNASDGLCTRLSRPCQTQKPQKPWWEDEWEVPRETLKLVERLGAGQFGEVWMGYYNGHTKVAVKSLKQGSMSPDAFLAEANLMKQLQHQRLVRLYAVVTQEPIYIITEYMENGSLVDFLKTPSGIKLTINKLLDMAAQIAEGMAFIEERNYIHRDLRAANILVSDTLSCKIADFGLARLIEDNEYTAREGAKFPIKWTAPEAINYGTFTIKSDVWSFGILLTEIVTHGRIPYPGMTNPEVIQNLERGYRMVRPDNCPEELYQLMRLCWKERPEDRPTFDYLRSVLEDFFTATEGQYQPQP

[8] = biological target: T5, MAO-B (h) recombinant enzyme (Homo sapiens, UniProt P27338); parameters: Eurofins SafetyScreen 87 enzyme part: inhibition of control enzyme activity, single concentration; conditions: mean of 2, 10 µM, inhibitor
T5 construct: gene MAOB; recombinant enzyme

[9] = biological target: PDE3A (h) (Homo sapiens, UniProt Q14432); parameters: Eurofins SafetyScreen 87 enzyme part: inhibition of control enzyme activity, single concentration; conditions: mean of 2, 10 µM, inhibitor
[10] = biological target: T6, PDE4D2 (h) (Homo sapiens, UniProt Q08499); parameters: Eurofins SafetyScreen 87 enzyme part: inhibition of control enzyme activity, single concentration; conditions: mean of 2, 10 µM, inhibitor
T6 construct: gene PDE4D; isoform PDE4D2
T6 sequence (Q08499 whole entry, canonical isoform): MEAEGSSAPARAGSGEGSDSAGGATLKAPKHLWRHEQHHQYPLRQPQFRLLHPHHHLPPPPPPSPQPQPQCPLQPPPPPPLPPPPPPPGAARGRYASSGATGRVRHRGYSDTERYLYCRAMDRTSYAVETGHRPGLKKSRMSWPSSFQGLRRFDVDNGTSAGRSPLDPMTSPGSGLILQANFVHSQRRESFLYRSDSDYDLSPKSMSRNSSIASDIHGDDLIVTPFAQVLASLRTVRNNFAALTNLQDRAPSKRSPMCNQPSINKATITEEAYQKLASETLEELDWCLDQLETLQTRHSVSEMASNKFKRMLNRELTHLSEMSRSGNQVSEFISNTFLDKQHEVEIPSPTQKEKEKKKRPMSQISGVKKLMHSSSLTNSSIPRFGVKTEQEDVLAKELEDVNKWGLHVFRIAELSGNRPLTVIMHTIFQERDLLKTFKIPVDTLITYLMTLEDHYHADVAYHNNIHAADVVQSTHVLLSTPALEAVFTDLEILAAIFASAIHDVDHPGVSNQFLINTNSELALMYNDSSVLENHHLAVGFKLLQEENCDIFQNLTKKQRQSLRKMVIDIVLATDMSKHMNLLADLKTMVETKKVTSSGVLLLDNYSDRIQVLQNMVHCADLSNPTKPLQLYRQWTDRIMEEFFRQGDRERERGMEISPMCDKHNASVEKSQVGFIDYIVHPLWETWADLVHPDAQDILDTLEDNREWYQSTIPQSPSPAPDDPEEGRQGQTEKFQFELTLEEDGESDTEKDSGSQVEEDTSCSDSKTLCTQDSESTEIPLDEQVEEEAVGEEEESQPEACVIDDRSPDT

[11] = biological target: T7, PKCalpha (h) (Homo sapiens, UniProt P17252); parameters: Eurofins SafetyScreen 87 enzyme part: inhibition of control enzyme activity, single concentration; conditions: mean of 2, 10 µM, inhibitor
T7 construct: gene PRKCA

[12] = biological target: T8, cathepsin G (h) (Homo sapiens, UniProt P08311); parameters: Eurofins SafetyScreen 87 enzyme part: inhibition of control enzyme activity, single concentration; conditions: mean of 2, 10 µM, inhibitor
T8 construct: gene CTSG
T8 sequence (P08311 whole entry): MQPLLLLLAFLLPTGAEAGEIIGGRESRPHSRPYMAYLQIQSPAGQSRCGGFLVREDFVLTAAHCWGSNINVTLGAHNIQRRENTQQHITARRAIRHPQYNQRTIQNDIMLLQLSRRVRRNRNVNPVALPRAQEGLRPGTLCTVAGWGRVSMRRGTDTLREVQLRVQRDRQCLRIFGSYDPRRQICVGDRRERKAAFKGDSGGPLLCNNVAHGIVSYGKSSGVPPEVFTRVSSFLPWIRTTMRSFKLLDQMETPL

[13] = biological target: T9, 5-HT2A (h) (agonist radioligand) (Homo sapiens, UniProt P28223); test: biochemical; parameters: Eurofins SafetyScreen 87 binding part: inhibition of control specific ligand binding, single concentration; conditions: read-out: Binding / ================================================= / % Inhibition of Control Specific Binding
T9 construct: gene HTR2A
T9 sequence (P28223 whole entry): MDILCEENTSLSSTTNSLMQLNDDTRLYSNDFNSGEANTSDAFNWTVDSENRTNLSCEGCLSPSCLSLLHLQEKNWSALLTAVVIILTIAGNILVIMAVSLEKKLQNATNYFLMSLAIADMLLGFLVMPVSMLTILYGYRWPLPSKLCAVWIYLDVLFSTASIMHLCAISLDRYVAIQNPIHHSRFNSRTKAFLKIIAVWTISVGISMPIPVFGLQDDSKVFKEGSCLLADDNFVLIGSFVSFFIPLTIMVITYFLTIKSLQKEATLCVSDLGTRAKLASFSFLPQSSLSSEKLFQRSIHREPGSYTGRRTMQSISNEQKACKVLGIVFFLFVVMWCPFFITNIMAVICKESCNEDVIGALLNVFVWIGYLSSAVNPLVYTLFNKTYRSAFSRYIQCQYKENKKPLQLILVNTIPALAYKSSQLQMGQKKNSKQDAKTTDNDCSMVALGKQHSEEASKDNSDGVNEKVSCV

[14] = biological target: T10, Potassium Channel hERG (human)- [3H] Dofetilide (Homo sapiens, UniProt Q12809); test: in vitro
T10 construct: gene KCNH2

[15] = biological target: T11, 5-HT2C (h) (antagonist radioligand) (Homo sapiens, UniProt P28335); test: biochemical; conditions: read-out: Binding / ================================================= / % Inhibition of Control Specific Binding
T11 construct: gene HTR2C

[16] = biological target: T12, B2 (h) (agonist radioligand) (Homo sapiens, UniProt P30411); test: biochemical; conditions: read-out: Binding / ================================================= / % Inhibition of Control Specific Binding
T12 construct: gene BDKRB2

[17] = biological target: T13, D2S (h) (agonist radioligand) (Homo sapiens, UniProt P14416); test: biochemical; conditions: read-out: Binding / ================================================= / % Inhibition of Control Specific Binding
T13 construct: gene DRD2
T13 sequence (P14416 whole entry): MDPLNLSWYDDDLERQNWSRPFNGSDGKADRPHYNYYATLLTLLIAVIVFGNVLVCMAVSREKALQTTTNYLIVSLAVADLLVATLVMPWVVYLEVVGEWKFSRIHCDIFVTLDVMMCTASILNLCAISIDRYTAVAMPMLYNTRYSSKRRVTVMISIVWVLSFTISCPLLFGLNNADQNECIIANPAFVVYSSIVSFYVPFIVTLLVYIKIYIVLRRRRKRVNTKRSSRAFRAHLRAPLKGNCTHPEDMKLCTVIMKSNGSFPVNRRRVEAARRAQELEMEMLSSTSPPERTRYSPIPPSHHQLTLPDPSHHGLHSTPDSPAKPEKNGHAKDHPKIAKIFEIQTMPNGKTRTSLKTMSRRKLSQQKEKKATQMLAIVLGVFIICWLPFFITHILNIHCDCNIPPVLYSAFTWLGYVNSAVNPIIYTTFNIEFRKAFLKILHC

[18] = biological target: T14, ETA (h) (agonist radioligand) (Homo sapiens, UniProt P25101); test: biochemical; conditions: read-out: Binding / ================================================= / % Inhibition of Control Specific Binding
T14 construct: gene EDNRA

[19] = biological target: T15, Estrogen ER alpha (h) (agonist radioligand) (Homo sapiens, UniProt P03372); test: biochemical; conditions: read-out: Binding / ================================================= / % Inhibition of Control Specific Binding
T15 construct: gene ESR1

[20] = biological target: T16, M4 (h) (antagonist radioligand) (Homo sapiens, UniProt P08173); test: biochemical; conditions: read-out: Binding / ================================================= / % Inhibition of Control Specific Binding
T16 construct: gene CHRM4

[21] = biological target: T17, MC1 (agonist radioligand) (Mus musculus, UniProt Q01727); test: biochemical; conditions: read-out: Binding / ================================================= / % Inhibition of Control Specific Binding
T17 construct: gene Mc1r
T17 sequence (Q01727 whole entry): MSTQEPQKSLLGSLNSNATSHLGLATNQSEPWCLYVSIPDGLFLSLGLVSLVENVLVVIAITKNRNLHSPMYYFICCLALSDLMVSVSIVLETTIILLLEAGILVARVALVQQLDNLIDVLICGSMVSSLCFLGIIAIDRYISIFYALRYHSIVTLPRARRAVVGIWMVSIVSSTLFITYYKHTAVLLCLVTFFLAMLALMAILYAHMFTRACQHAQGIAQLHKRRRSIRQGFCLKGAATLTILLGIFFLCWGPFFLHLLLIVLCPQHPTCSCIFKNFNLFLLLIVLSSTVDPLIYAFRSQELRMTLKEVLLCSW

[22] = biological target: T18, NK1 (h) (agonist radioligand) (Homo sapiens, UniProt P25103); test: biochemical; conditions: read-out: Binding / ================================================= / % Inhibition of Control Specific Binding
T18 construct: gene TACR1

[23] = biological target: T19, PR (h) (agonist radioligand) (Homo sapiens, UniProt P06401); test: biochemical; conditions: read-out: Binding / ================================================= / % Inhibition of Control Specific Binding
T19 construct: gene PGR
T19 sequence (P06401 whole entry): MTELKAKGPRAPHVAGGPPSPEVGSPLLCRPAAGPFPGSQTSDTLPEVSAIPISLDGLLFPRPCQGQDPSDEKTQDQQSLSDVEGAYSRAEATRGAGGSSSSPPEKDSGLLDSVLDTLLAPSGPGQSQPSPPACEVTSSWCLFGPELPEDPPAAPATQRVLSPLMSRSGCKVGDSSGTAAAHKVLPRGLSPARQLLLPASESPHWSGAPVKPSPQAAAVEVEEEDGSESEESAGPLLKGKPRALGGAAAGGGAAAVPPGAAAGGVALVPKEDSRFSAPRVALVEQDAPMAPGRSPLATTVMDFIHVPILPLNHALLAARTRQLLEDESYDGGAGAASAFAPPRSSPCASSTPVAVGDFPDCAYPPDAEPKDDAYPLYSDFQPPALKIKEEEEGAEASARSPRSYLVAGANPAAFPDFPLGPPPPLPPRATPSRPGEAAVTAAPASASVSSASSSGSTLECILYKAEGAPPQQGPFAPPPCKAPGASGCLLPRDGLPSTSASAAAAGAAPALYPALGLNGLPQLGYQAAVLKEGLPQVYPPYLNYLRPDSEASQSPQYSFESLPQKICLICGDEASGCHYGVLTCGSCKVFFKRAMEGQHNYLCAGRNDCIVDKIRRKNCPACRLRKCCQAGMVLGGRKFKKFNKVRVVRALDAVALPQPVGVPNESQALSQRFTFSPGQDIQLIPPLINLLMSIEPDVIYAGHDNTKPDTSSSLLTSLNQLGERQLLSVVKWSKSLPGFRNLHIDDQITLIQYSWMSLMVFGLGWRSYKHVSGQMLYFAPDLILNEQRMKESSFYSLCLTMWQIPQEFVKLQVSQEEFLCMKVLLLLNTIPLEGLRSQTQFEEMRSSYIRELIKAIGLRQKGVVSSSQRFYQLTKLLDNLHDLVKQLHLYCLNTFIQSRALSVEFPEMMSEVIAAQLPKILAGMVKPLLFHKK

[24] = biological target: T20, RARalpha (h) (agonist radioligand) (Homo sapiens, UniProt P10276); test: biochemical; conditions: read-out: Binding / ================================================= / % Inhibition of Control Specific Binding
T20 construct: gene RARA

[25] = biological target: T21, Y1 (h) (agonist radioligand) (Homo sapiens, UniProt P25929); test: biochemical; conditions: read-out: Binding / ================================================= / % Inhibition of Control Specific Binding
T21 construct: gene NPY1R
T21 sequence (P25929 whole entry): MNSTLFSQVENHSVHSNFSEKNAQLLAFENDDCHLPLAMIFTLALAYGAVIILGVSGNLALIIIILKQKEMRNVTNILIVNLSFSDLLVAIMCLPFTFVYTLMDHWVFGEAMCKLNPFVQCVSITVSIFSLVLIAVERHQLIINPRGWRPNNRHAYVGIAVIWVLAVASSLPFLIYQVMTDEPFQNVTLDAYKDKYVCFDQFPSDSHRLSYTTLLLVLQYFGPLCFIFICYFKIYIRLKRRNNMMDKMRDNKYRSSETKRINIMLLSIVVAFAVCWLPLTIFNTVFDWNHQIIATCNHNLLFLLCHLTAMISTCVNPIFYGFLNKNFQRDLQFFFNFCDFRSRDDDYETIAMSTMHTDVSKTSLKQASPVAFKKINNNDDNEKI

[26] = biological target: T22, alpha 1B (h) (antagonist radioligand) (Homo sapiens, UniProt P35368); test: biochemical; conditions: read-out: Binding / ================================================= / % Inhibition of Control Specific Binding
T22 construct: gene ADRA1B

[27] = biological target: T23, alpha 1D (h) (antagonist radioligand) (Homo sapiens, UniProt P25100); test: biochemical; conditions: read-out: Binding / ================================================= / % Inhibition of Control Specific Binding
T23 construct: gene ADRA1D
T23 sequence (P25100 whole entry): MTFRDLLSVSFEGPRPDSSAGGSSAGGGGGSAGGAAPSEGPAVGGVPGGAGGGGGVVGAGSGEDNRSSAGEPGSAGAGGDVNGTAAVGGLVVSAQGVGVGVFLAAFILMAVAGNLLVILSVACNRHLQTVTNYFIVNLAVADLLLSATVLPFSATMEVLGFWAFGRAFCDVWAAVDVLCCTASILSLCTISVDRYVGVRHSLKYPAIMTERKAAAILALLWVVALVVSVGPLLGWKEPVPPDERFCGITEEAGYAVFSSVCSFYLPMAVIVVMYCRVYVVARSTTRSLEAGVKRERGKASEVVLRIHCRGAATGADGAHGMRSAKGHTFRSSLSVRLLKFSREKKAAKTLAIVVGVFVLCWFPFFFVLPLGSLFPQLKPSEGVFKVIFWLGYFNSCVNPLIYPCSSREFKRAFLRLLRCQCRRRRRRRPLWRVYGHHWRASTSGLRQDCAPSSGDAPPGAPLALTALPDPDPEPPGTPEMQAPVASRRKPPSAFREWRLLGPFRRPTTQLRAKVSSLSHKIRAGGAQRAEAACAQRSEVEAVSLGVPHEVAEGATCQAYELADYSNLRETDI

[28] = biological target: PI3Kγ (Homo sapiens, UniProt P48736); test: X-ray cocrystal structure ([…] Å); purified kinase assay IC50; format: biochemical; parameters: gene PIK3CG; S144-A1102

T2 sequence (P37231 232-505): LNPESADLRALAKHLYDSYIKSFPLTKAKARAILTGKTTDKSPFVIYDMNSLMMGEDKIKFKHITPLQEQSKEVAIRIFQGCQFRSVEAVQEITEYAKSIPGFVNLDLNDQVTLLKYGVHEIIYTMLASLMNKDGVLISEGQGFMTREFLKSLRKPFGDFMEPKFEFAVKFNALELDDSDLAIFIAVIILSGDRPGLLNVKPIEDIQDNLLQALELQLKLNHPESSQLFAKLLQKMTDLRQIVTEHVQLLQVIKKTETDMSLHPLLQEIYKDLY

SMILES: C[C@@H](Nc1ncnc2ccc(-c3cnc(Cl)c(NS(C)(=O)=O)c3)cc12)c1ccccc1 [MTX-531, (R)-N-(2-chloro-5-(4-((1-phenylethyl)amino)quinazolin-6-yl)pyridin-3-yl)methane-sulfonamide]
- IC50 [1]: 1.1 nM
- IC50 [2]: 2500 nM
- % inhibition of control enzyme activity [3]: -2%
- % inhibition of control enzyme activity [4]: -4%
- % inhibition of control enzyme activity [5]: -3%
- % inhibition of control enzyme activity [6]: 0%
- % inhibition of control enzyme activity [7]: 4%
- % inhibition of control enzyme activity [8]: 10%
- % inhibition of control enzyme activity [9]: 29%
- % inhibition of control enzyme activity [10]: 88%
- % inhibition of control enzyme activity [11]: -3%
- % inhibition of control enzyme activity [12]: 26%
- inhibition at 10 µM [13]: -5%
- inhibition at 10 µM [14]: 51%
- inhibition at 10 µM [15]: 4%
- inhibition at 10 µM [16]: -1%
- inhibition at 10 µM [17]: -4%
- inhibition at 10 µM [18]: 1%
- inhibition at 10 µM [19]: 6%
- inhibition at 10 µM [20]: 5%
- inhibition at 10 µM [21]: 2%
- inhibition at 10 µM [22]: -5%
- inhibition at 10 µM [23]: -14%
- inhibition at 10 µM [24]: 4%
- inhibition at 10 µM [25]: 0%
- inhibition at 10 µM [26]: 1%
- inhibition at 10 µM [27]: 17%
- IC50 [28]: 8.3 nM

— article PMC11357990, “A first-in-class selective inhibitor of EGFR and PI3K offers a single-molecule approach to targeting adaptive resistance” (Nature Cancer, 2024)
